According to PMC10060280, “The influence of cyclooxygenase inhibitors on kynurenic acid production in rat kidney: a novel path for kidney protection?” (Pharmacological Reports, 2023):
Counter-ions that a name gives are not always drawn. Like-named read-outs stand apart in the source and are kept apart here.

Tests used:
animal models of ADPKD = settings: animal model of ADPKD, cited from earlier work
[1] = system: KYNA content in the rat brain; settings: cited from earlier work; for KYNA content in the rat brain: after drug administration
KAT I = target: T1, KAT I (Rattus norvegicus, UniProt Q08415); experiment: KAT I activity in rat kidney in vitro; type: biochemical; settings: 2 µM L-KYN; for IC50: read-out: IC50 of KAT I inhibition; for effect on KAT I activity: 1 μM-1 mM drug
T1 construct: kidneys were homogenized in dialysate buffer (1:9; w/v); from tissue; host or cells: rat kidney (dialyzed supernatant of homogenate)
T1 sequence (Q08415 1-423): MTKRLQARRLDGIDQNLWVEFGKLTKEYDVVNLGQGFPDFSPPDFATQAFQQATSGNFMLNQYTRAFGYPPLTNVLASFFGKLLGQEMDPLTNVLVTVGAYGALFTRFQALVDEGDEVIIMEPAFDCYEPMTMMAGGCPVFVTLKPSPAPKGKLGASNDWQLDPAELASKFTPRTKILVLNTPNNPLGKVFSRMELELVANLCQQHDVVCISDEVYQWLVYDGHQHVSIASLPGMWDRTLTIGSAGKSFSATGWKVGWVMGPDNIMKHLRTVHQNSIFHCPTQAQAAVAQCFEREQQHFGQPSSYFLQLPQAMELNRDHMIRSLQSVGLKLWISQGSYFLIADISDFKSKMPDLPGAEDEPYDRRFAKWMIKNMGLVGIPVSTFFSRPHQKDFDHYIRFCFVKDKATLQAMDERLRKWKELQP
Experimental: (§1) KAT I and KAT II activity in rat kidneys in vitro was analyzed based on procedures previously presented in a study by Gramsbergen et al.. […] The homogenate was centrifuged (15,133×g, 15 min) and then collected supernatant was dialyzed against 4 L of the dialysate buffer for 12 h at 8 °C with the use of cellulose membrane dialysis tubing. […] L-KYN concentration used in this analysis was equal to plasma KYN concentration, as reported by […] et al., and was sufficient to obtain appropriate enzymatic activity. The optimal pH was set at 9.5 and 7.0 for KAT I or KAT II activity analysis, respectively. Glutamine (2 mM), a KAT I inhibitor, was added to samples to measure KAT II's activity. The reaction was terminated by moving all samples into the ice-cold bath. Finally, all samples were centrifuged and analyzed by HPLC, as described in the previous section. […] To analyze KAT's activity, kidneys from 14 rats were used. Presented data are shown as mean ± standard deviation (SD). The one-way analysis of variance (one-way ANOVA) followed by Tukey's multiple comparison test was applied to analyze differences between tested COX inhibitors. The half-maximal inhibitory concentrations values (IC50) were assessed by fitting the experimental data to a four-parameter logistic equation. Statistical analyses were done with the use of GraphPad Prism 6. Values of p < 0.05 were considered to be statistically significant.

[2] = system: KYNA production in rat kidney; experiment: KYNA synthesis in rat kidney homogenate in vitro; type: biochemical; settings: 10 μM L-KYN; for IC50: 2 h, 37 °C, read-out: IC50 of KYNA production inhibition
Experimental: In the first step, after the animals were decapitated, rat kidneys were harvested and immediately put on ice. Afterward whole kidneys were weighed and homogenized in prepared oxygenated Krebs–Ringer buffer at pH 7.4 (1:4; w/v). 100 µL of kidney homogenate was put into test tubes, pre-filled with oxygenated Krebs–Ringer buffer (containing 800 μL in every tube). […] At least six independent kidney samples were used for each experiment in this part of the study. Control samples, instead of the drug solution, contained an equal volume of a drug solvent (50 µL of DMSO or water). The reaction was stopped by adding 1 N HCl (100 μL per sample) on ice. […] Tissues from 14 animals were used in this part of the study. Presented data are shown as mean ± standard deviation (SD). The one-way analysis of variance (one-way ANOVA) followed by Tukey’s multiple comparison test was applied to analyze differences between tested COX inhibitors. The half-maximal inhibitory concentrations values (IC50) were assessed by fitting the experimental data to a four-parameter logistic equation. Statistical analyses were done with the use of GraphPad Prism 6. Values of p < 0.05 were considered to be statistically significant.

KAT II = target: T2, KAT II (Rattus norvegicus, UniProt Q64602); experiment: KAT II activity in rat kidney in vitro; type: biochemical; settings: 2 µM L-KYN; for IC50: pH 7.0, 2 mM glutamine, read-out: IC50 of KAT II inhibition
T2 construct: kidneys were homogenized in dialysate buffer (1:9; w/v); from tissue; host or cells: rat kidney (dialyzed supernatant of homogenate)
T2 sequence (Q64602 30-425): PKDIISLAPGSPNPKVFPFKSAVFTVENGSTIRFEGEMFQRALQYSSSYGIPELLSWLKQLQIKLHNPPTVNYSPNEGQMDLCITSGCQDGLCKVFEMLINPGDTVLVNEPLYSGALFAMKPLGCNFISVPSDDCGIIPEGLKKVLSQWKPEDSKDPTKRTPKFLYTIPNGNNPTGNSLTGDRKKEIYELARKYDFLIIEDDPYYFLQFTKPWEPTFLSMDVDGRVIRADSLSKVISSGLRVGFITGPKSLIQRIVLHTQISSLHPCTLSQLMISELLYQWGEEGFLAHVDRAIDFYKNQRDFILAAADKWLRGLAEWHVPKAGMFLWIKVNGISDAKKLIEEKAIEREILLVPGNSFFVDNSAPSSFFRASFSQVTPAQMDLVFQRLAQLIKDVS
Experimental: as §1

serum KYNA concentration = system: serum KYNA concentration; parameters: method as in PMID 36271950; settings: 20 healthy volunteers, acute administration, 5 h after drug administration; cited from earlier work
[3] = highest concentration tested 1 mM
[4] = pH 9.5, highest concentration tested 1 mM

For `Cc1ccc(-c2cc(C(F)(F)F)nn2-c2ccc(S(N)(=O)=O)cc2)cc1` [celecoxib], the cysts volume (animal models of ADPKD; selective COX-2 blockade) is listed as “decrease cysts volume”.

For `Cc1cnc(NC(=O)C2=C(O)c3ccccc3S(=O)(=O)N2C)s1` [meloxicam, meloxicam sodium salt hydrate], the “KYNA content in the rat brain” value [1] is given as “Decreased KYNA content”, the IC50 (KAT I; pH 9.5, 2 h, 37 °C) is given as 310 µM and the IC50 [2, 3] is given as > 1000 µM. The IC50 (KAT II; 2 h, 37 °C) was 155 µM.

For `CC1=C(CC(=O)O)c2cc(F)ccc2/C1=C\c1ccc([S+](C)[O-])cc1` (stereo not shown) [sulindac], the cysts volume (animal models of ADPKD; nonselective COX inhibition) is listed as “decrease cysts volume”.

In the case of `CC(=O)Oc1ccccc1C(=O)O` [acetylsalicylic acid], the “effect on KAT I activity” value (KAT I) is reported as “did not affect the activity of KAT I”, the IC50 [2, 3] is reported as > 1000 µM and the IC50 (KAT II; [3]) is reported as > 1000 µM.

For `O=C(O)Cc1ccccc1Nc1c(Cl)cccc1Cl` [diclofenac, diclofenac sodium salt], the “KYNA content in the rat brain” value [1] is listed as “elevated KYNA levels”, the “KYNA concentration in the rat brain” value ([1]; following tail ischemia) is listed as “increased KYNA concentration” and the IC50 (KAT I; [4]) is listed as > 1000 µM. The IC50 [2] was 230 µM, the “decrease of KYNA synthesis” value ([2]; concentration not given) was 64% and the IC50 (KAT II; 2 h, 37 °C) was 191 µM.

For `COc1ccc2cc([C@H](C)C(=O)O)ccc2c1` [naproxen, naproxen sodium], the IC50 (KAT I; [4]) was > 1000 µM, the IC50 [2] was 464 µM and the IC50 (KAT II; 2 h, 37 °C) was 504 µM.

For `CS(=O)(=O)Nc1ccc([N+](=O)[O-])cc1Oc1ccccc1` [nimesulide], the IC50 (KAT I; pH 9.5, 2 h, 37 °C) was 128 µM, the IC50 [2] was 473 µM and the IC50 (KAT II; [3]) was > 1000 µM.

In the case of `CC(C)Cc1ccc(C(C)C(=O)O)cc1` (stereo not shown) [ibuprofen], the “serum KYNA concentration” value (serum KYNA concentration) is listed as “increases serum KYNA concentration”, the “effect on KAT I activity” value (KAT I) is listed as “did not affect the activity of KAT I” and the IC50 [2, 3] is listed as > 1000 µM. For the same molecule, the IC50 (KAT II; [3]) was > 1000 µM.

In the case of `CN1C(C(=O)Nc2ccccn2)=C(O)c2ccccc2S1(=O)=O` [piroxicam], the IC50 (KAT I; [4]) is reported as > 1000 µM and the IC50 (KAT II; [3]) is reported as > 1000 µM.

In the case of `COc1ccc2c(c1)c(CC(=O)O)c(C)n2C(=O)c1ccc(Cl)cc1` [indomethacin], the “KYNA content in the rat brain” value [1] is listed as “elevated KYNA levels”, the IC50 (KAT I; pH 9.5, 2 h, 37 °C) is listed as 503 µM and the IC50 [2] is listed as 246 µM. The IC50 (KAT II; 2 h, 37 °C) was 420 µM.

For `CC(=O)Nc1ccc(O)cc1` [acetaminophen], the “effect on KAT I activity” value (KAT I) was “did not affect the activity of KAT I”, the “effect on KYNA production” value ([2]; 1 μM-1 mM drug) was “did not change KYNA production” and the “effect on KAT II activity” value (KAT II; 1 μM-1 mM drug) was “not shown to inhibit KAT II activity”.
